# Measured values: patent US6583180B2, “Glucocorticoid receptor modulators” (Abbott Laboratories, priority 2001, dated 2003)
# Target: T1, Human glucocorticoid receptors (Homo sapiens, UniProt P04150)
# T1 construct: made in house; host or cells: Sf9 insect cells, recombinant baculovirus (BAC-TO-BAC)
# T1 sequence (P04150 1-777): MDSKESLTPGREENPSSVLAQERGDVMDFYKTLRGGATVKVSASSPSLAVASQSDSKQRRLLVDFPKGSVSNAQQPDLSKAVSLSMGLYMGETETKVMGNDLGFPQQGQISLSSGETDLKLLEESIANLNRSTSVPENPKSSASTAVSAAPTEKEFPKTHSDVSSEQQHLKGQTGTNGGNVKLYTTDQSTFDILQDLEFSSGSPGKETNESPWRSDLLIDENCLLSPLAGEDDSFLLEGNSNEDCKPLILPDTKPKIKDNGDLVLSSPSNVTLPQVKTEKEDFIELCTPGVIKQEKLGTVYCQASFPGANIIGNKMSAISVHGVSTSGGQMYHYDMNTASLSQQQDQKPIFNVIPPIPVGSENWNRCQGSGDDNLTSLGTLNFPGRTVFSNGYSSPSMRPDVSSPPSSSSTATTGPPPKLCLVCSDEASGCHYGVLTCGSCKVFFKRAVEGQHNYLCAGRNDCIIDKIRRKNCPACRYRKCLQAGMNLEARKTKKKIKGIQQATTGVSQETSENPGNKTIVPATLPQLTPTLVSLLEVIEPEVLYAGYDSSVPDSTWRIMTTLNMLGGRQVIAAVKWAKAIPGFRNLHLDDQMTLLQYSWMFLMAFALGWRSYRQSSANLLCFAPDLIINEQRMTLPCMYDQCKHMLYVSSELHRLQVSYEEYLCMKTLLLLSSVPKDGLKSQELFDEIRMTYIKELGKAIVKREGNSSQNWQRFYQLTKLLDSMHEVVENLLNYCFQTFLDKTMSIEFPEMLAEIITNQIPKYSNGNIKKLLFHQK
# Assay: Radioligand filter binding assay, displacement of 3[H]-dexamethasone from hGR
# Conditions: read-out: GR Binding (% Inhibition at 1.7 μM)
# Excerpt: Dexamethasone hereafter referred to as dex was purchased from SIGMA. […] Human glucocorticoid receptors were extracted from Sf9 cells infected with a recombinant baculovirus transfer vector containing the cloned hGR genes. Recombinant baculovirus was generated utilizing the BAC-TO-BAC expression system (Life Technologies) in accordance to instruction from the supplier. The hGR coding sequences were cloned into a baculovirus transfer vector by standard techniques. The recombinant baculoviruses expressing hGR were amplified and used to infect Sf9 cells. Infected cells were harvested 48 hrs post infection. […] The concentration of hGR in the extract was measured as specific ^3[H]-dex binding with the G25-assay as described in J. Steroid Biochem. Molec. […] The extract was aliquoted and stored at −70° C.
# The filter binding assay: Dilution series of the test compounds and dex as reference were made from 10 mM (1 mM dex) stock solutions in DMSO. 10 μl of the dilutions was added in duplicates to the wells. The cell extracts were diluted 10 fold in EPMo+MTG buffer (1 mM EDTA, HPO4 20 mM (pH8), 6 mM MTG). […] 110 μl of the diluted ^3[H]-dex were added to the wells. The final concentration of hGR in the experiment was estimated to 1 nM. All preparations were made in […] on ice and with +4° C. temperated buffers. The plates were incubated over night at +4° C. (15-20 hours).
# The incubation was stopped by filtration through GF/B filter on the Tomtec Cellharvester. The filtration on the Tomtec Cellharvester was programmed as follows: 1) Preparation before filtration with EP buffer (1 mM EDTA 20 mM HPO4 (pH8)) 2×[Wash/Asp 0.6 sec., Asp 0.5 sec.]; 2) Prewet of GF/B filter with EP+PEI buffer (EP buffer, 0.3% Polyethylenimine) [Asp 0.8 sec.]; 3) Filtration/harvesting of the 96-well incubation plate 3×[Wash/Asp 0.6 sec., Asp 0.5 sec.]. The GF/B filter was dried for at least 1 hour at 65° C. A MeltiLex scintillation wax was melted onto the filter with the Microsealer. The filter was placed in a samplebag, which was thereafter trimmed with scissors to fit the filter cassette. The cassette were placed in the Microbeta and measured for 1 min/position, returning ccpm (corrected counts per minute).
# b=((bmax−bmin)/(1+(I/IC50)^S))+bminI
# The Microbeta-instrument generates the mean cpm (counts per minute) value/minute and corrects for individual variations between the detectors thus generating corrected cpm values.
row,SMILES,inhibition at 1.7 µM [%]
1,"CCCCCCc1ccc(Oc2ccc(CN(Cc3ccc(F)cc3F)c3cccc(NS(C)(=O)=O)c3C)cc2)cc1OCC(=O)O [Example 238, (5-{4-[((2,4-difluorobenzyl){2-methyl-3-[(methylsulfonyl)amino]phenyl}amino)methyl]phenoxy}-2-hexylphenoxy)acetic acid]",94.2
2,"CCOC(=O)COc1cc(Oc2ccc(CN(Cc3ccc(F)cc3F)c3cccc(NS(C)(=O)=O)c3C)cc2)ccc1Cl [Example 241, ethyl (2-chloro-5-{4-[((2,4-difluorobenzyl){2-methyl-3-[(methylsulfonyl)amino]phenyl}amino)methyl]phenoxy}phenoxy)acetate]",90.6
3,"Cc1c(NS(C)(=O)=O)cccc1N(Cc1ccccc1)Cc1ccc(C(=O)c2cccc(OCCC3CC3)c2)cc1 [Example 242, N-[3-(benzyl{4-[3-(2-cyclopropylethoxy)benzoyl]benzyl}amino)-2-methylphenyl]methanesulfonamide]",94.1
4,"Cc1c(NS(C)(=O)=O)cccc1N(Cc1ccccc1)Cc1ccc(C(=O)c2cccc(OCC3CCCC3)c2)cc1 [Example 243, N-[3-(benzyl{4-[3-(cyclopentylmethoxy)benzoyl]benzyl}amino)-2-methylphenyl]methanesulfonamide]",92
5,"Cc1c(NS(C)(=O)=O)cccc1N(Cc1ccccc1)Cc1ccc(C(=O)c2cccc(OCC3CCCO3)c2)cc1 (stereo not shown) [Example 244, N-[3-(benzyl{4-[3-(tetrahydrofuran-2-ylmethoxy)benzoyl]benzyl}amino)-2-methylphenyl]methanesulfonamide]",95.3
6,"Cc1c(NS(C)(=O)=O)cccc1N(Cc1ccccc1)Cc1ccc(C(=O)c2cccc(OCC3CCOC3)c2)cc1 (stereo not shown) [Example 245, N-[3-(benzyl{4-[3-(tetrahydrofuran-3-ylmethoxy)benzoyl]benzyl}amino)-2-methylphenyl]methanesulfonamide]",96.3
7,"Cc1c(NS(C)(=O)=O)cccc1N(Cc1ccccc1)Cc1ccc(C(=O)c2cccc(OCc3ccccc3)c2)cc1 [Example 247, N-[3-(benzyl{4-[3-(benzyloxy)benzoyl]benzyl}amino)-2-methylphenyl]methanesulfonamide]",90.9
8,"Cc1c(NS(C)(=O)=O)cccc1N(Cc1ccccc1)Cc1ccc(C(=O)c2cccc(OCCN3CCCC3=O)c2)cc1 [Example 248, N-{3-[benzyl(4-{3-[2-(2-oxopyrrolidin-1-yl)ethoxy]benzoyl}benzyl)amino]-2-methylphenyl}methanesulfonamide]",96.7
9,"Cc1ncsc1CCOc1cccc(C(=O)c2ccc(CN(Cc3ccccc3)c3cccc(NS(C)(=O)=O)c3C)cc2)c1 [Example 249, N-{3-[benzyl(4-{3-[2-(4-methyl-1,3-thiazol-5-yl)ethoxy]benzoyl}benzyl)amino]-2-methylphenyl}methanesulfonamide]",95.4

# Second part, the compound after the results:
row,inhibition at 1.7 µM [%],SMILES
1,93.4,"CCOC(=O)CN(C)C(=O)CCCOc1cccc(Oc2ccc(CN(Cc3ccccc3)c3cccc(NS(C)(=O)=O)c3C)cc2)c1 [Example 239, ethyl N-[4-(3-{4-[(benzyl{2-methyl-3-[(methylsulfonyl)amino]phenyl}amino)methyl]phenoxy}phenoxy)butanoyl]-N-methylglycinate]"
2,93.3,"Cc1c(NS(C)(=O)=O)cccc1N(Cc1ccccc1)Cc1ccc(Oc2cccc(OCCCC(=O)N(C)CC(=O)O)c2)cc1 [Example 240, N-[4-(3-{4-[(benzyl{2-methyl-3-[(methylsulfonyl)amino]phenyl}amino)methyl]phenoxy}phenoxy)butanoyl]-N-methylglycine]"
3,88.6,"Cc1c(NS(C)(=O)=O)cccc1N(Cc1ccccc1)Cc1ccc(C(=O)c2cccc(OCCc3ccccc3)c2)cc1 [Example 246, N-[3-(benzyl{4-[3-(2-phenylethoxy)benzoyl]benzyl}amino)-2-methylphenyl]methanesulfonamide]"
4,92.9,"Cc1c(NS(C)(=O)=O)cccc1N(Cc1ccccc1)Cc1ccc(C(=O)c2ccc(OC[C@H](O)CO)cc2)cc1 [Example 250, N-(3-{benzyl[4-(4-{[(2R)-2,3-dihydroxypropyl]oxy}benzoyl)benzyl]amino}-2-methylphenyl)methanesulfonamide]"
5,94.2,"Cc1c(NS(C)(=O)=O)cccc1N(Cc1ccccc1)Cc1ccc(Oc2ccc(OCCCC(=O)NCC(=O)O)cc2)cc1 [Example 251, N-[4-(4-{4-[(benzyl{2-methyl-3-[(methylsulfonyl)amino]phenyl}amino)methyl]phenoxy}phenoxy)butanoyl]glycine]"
6,91.9,"Cc1c(NS(C)(=O)=O)cccc1N(Cc1ccccc1)Cc1ccc(Oc2ccc(OCCCC(=O)NCCC(=O)O)cc2)cc1 [Example 252, N-[4-(4-{4-[(benzyl{2-methyl-3-[(methylsulfonyl)amino]phenyl}amino)methyl]phenoxy}phenoxy)butanoyl]-beta-alanine]"
7,92.8,"Cc1c(NS(C)(=O)=O)cccc1N(Cc1ccccc1)Cc1ccc(Oc2ccc(OCCCC(=O)N(C)CC(=O)O)cc2)cc1 [Example 254, N-[4-(4-{4-[(benzyl{2-methyl-3-[(methylsulfonyl)amino]phenyl}amino)methyl]phenoxy}phenoxy)butanoyl]-N-methylglycine]"
8,93.6,"Cc1c(NS(C)(=O)=O)cccc1N(Cc1ccccc1)Cc1ccc(Oc2ccc(OCCCC(=O)N[C@@H](CCC(=O)O)C(=O)O)cc2)cc1 [Example 255, N-[4-(4-{4-[(benzyl{2-methyl-3-[(methylsulfonyl)amino]phenyl}amino)methyl]phenoxy}phenoxy)butanoyl]-L-glutamic acid]"
9,92.6,"Cc1c(NS(C)(=O)=O)cccc1N(Cc1ccccc1)Cc1ccc(Oc2ccc(OCCCC(=O)N[C@H](C(=O)O)C(C)C)cc2)cc1 [Example 256, N-[4-(4-{4-[(benzyl{2-methyl-3-[(methylsulfonyl)amino]phenyl}amino)methyl]phenoxy}phenoxy)butanoyl]-L-valine]"
10,90.6,"Cc1c(NS(C)(=O)=O)cccc1N(Cc1ccccc1)Cc1ccc(Oc2ccc(OCCCC(=O)Nc3cc(C(=O)O)n(C)c3)cc2)cc1 [Example 257, 4-{[4-(4-{4-[(benzyl{2-methyl-3-[(methylsulfonyl)amino]phenyl}amino)methyl]phenoxy}phenoxy)butanoyl]amino}-1-methyl-1H-pyrrole-2-carboxylic acid]"
11,91.6,"Cc1c(NS(C)(=O)=O)cccc1N(Cc1ccccc1)Cc1ccc(Oc2ccc(OCCCC(=O)N[C@@H](CO)C(=O)O)cc2)cc1 [Example 258, N-[4-(4-{4-[(benzyl{2-methyl-3-[(methylsulfonyl)amino]phenyl}amino)methyl]phenoxy}phenoxy)butanoyl]-L-serine]"
12,91.2,"CC[C@H](C)[C@H](NC(=O)CCCOc1ccc(Oc2ccc(CN(Cc3ccccc3)c3cccc(NS(C)(=O)=O)c3C)cc2)cc1)C(=O)O [Example 259, N-[4-(4-{4-[(benzyl{2-methyl-3-[(methylsulfonyl)amino]phenyl}amino)methyl]phenoxy}phenoxy)butanoyl]-L-isoleucine]"
13,91.3,"Cc1c(NS(C)(=O)=O)cccc1N(Cc1ccccc1)Cc1ccc(Oc2ccc(OCCCC(=O)N[C@@H](CCC(N)=O)C(=O)O)cc2)cc1 [Example 260, N˜2˜-[4-(4-{4-[(benzyl{2-methyl-3-[(methylsulfonyl)amino]phenyl}amino)methyl]phenoxy}phenoxy)butanoyl]-L-glutamine]"
